This is an account of results in US6949516B2, “Dipeptide apoptosis inhibitors and the use thereof” (Cytovia, Inc., priority 1997, dated 2005).

What all share (type): biochemical
One assay has as its target Thrombin (Homo sapiens, UniProt P00734). As to the kind of experiment: Protease inhibition, thrombin. The text has this: (§1) Table I lists the IC50 of Cbz-Val-Asp(OMe)-CH2F and Cbz-Val-Asp-CH2F (free acid) for CPP32 and other proteases.
A further assay concerns the target T1, CPP32 (Homo sapiens, UniProt P42574).
T1 construct: made in house; host or cells: Sf9 insect cells, baculovirus vector
T1 sequence (P42574 29-175 limits assumed): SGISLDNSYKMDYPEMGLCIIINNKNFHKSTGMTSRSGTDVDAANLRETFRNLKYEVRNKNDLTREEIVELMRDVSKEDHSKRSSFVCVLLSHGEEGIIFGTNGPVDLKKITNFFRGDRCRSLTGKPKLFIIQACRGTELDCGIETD
As to the kind of experiment: Fluorometric enzyme assay, CPP32. Conditions: recombinant CPP32, 37° C., 30 minutes. On the procedure:
(§2) The activities of Cbz-Val-Asp(OMe)-CH2F and Cbz-Val-Asp-CH2F (free acid) as inhibitors of CPP32, ICE and cathepsin B were measured in a fluorometric enzyme assay. Recombinant CPP32 protein and ICE protein were prepared by expressing DNA clones encoding these enzymes in an insect host cell (sf9 cells) using baculovirus as the vector. See, Webb, N.R. et al., “Expression of proteins using recombinant Baculovirus,” Techniques 2:173-188 (1990). Preparations of native cathepsin were acquired from a commercial source. Enzyme activity was measured using synthetic peptide substrates attached to a fluorogenic leaving group. Cleavage of the synthetic substrate by the enzyme results in a fluorescent signal which is read in a spectrofluorometer or in a fluorometric microtiter plate reader.
CPP32 activity was measured using the following buffer conditions: 100 mM HEPES pH 7.5, with 10% sucrose, 1% CHAPS, 5 mM glutathione, and 5 μM peptide substrate. The peptide substrate consisted of an oligomer with the sequence Asp-Glu-Val-Asp (SEQ ID NO:1) with the fluorogenic compound aminomethylcoumarin conjugated to the C-terminus. The assay for enzyme activity was typically carried out at 37° C. for 30 minutes.

The target of another assay is T2, ICE (Homo sapiens, UniProt P29466).
T2 construct: made in house; host or cells: Sf9 insect cells, baculovirus vector
T2 sequence (P29466 120-297 limits assumed): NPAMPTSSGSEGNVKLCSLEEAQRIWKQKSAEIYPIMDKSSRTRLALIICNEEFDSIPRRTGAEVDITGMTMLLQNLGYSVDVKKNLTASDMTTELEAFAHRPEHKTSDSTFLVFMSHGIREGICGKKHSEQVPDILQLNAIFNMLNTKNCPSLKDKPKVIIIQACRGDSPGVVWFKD
As to the kind of experiment: Fluorometric enzyme assay, ICE. Conditions: recombinant ICE. On the procedure:
as §2

In the next assay the test system is Factor Xa. Briefly: Protease inhibition, Factor Xa.
Description: as §1

The target of the next assay is T3, Cathepsin B (Homo sapiens, UniProt P07858).
T3 construct: Preparations of native cathepsin were acquired from a commercial source; purchased
Briefly: Fluorometric enzyme assay, cathepsin B. Conditions: native cathepsin, commercial source. Here is the method: as §2

Another assay deals with T4, Caspase-7 (Homo sapiens, UniProt P55210).
T4 construct: purchased PharMington (PharMingen, a Becton division company, San Diego, Calif.)
T4 sequence (P55210 24-198 limits assumed): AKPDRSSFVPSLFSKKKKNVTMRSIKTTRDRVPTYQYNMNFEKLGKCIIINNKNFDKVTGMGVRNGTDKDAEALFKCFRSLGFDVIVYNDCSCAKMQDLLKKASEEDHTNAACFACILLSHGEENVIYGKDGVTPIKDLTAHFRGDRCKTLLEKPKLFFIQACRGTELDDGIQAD
Briefly: Recombinant caspase assay with Ac-DEVD-AMC, caspase-7. Particulars: 10 μM Ac-DEVD-AMC, 30 minutes at 37° C. Here is the method:
The inhibitory activity of Cbz-Val-Asp-CH2F in recombinant caspase 3, 6, 7 and 8 obtained from PharMington (a Becton division company, San Diego, Calif.) were measured using Ac-DEVD-AMC (SEQ ID NO:1). The amount of each enzyme per assay was as following: 1 ng caspase3, 15 ng caspase6, 2 ng caspase7 and 60 ng caspase8. The enzyme reaction was conducted in 96-well plate using a caspase buffer (20 mM PIPES, 100 mM NaCl, 10 mM DTT, 1 mM EDTA, 0.1% CHAPS and 10% sucrose, pH 7.2) and the reaction was initiated by adding 10 μM Ac-DEVD-AMC (SEQ ID NO:1) (purchased from Quality Controlled Biochemicals, Inc. Hopkinton, Mass.). Twelve concentrations of Cbz-Val-Asp-CH2F ranged from 30 μM to […] were tested after incubation of the compound with recombinant caspases for 30 minutes at 37° C. […] The data was analyzed using GraphPrism software.

The term IC50 denotes the concentration that gives 50% inhibition. Turning to `COC(=O)CC(NC(=O)C(NC(=O)OCc1ccccc1)C(C)C)C(=O)CF` (stereo not drawn) [Cbz-Val-Asp(OMe)-CH2F, Z-Val-Asp-fmk Methyl Ester], the IC50 is above 100000 nM at Thrombin; 1100 nM on CPP32; 900 nM on ICE; above 100000 nM with Factor Xa; 300 nM against Cathepsin B.

For the compound `CC(C)[C@H](NC(=O)OCc1ccccc1)C(=O)NC(CC(=O)O)C(=O)CF` (stereo partly drawn) [Cbz-Val-Asp-CH2F, Z-Val-Asp-fmk], the IC50 on Thrombin was above 100000 nM; on Caspase-7, 6.8 nM; on CPP32 it was 43 nM; at ICE it was 20 nM; with Factor Xa it was above 100000 nM; against Cathepsin B, above 10000 nM.
